≈ marks a conversion by molar mass, not a printed value. Non-standard residues stand in square brackets, D forms with d. Residues, ends and D or L forms follow the SMILES beside them. *: point of attachment. Lauroyl = CCCCCCCCCCCC(=O)*
Legend:
[1] = system: Escherichia coli ATCC 25922; assay: MIC, NCCLS M7-A6 broth microdilution (Table 9, no superscript); type: cell-based; conditions: ATCC 25922
Method in brief: (§1)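 Broth microdilution in cation-adjusted Mueller Hinton broth with log-phase inoculum at 5×10^5 to 1×10^6 CFU/mL, incubated overnight at 37° C. MIC was the lowest peptide concentration showing no visible turbidity versus the no-peptide control.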

[2] = system: Pseudomonas aeruginosa ATCC 27853; assay: as above; type: cell-based; conditions: ATCC 27853
Method in brief: as §1

[3] = system: Staphylococcus epidermidis ATCC 12228; assay: as above; type: cell-based; conditions: ATCC 12228
Method in brief: as §1

[4] = system: Propionibacterium acnes ATCC 6919; type: cell-based
Description: A second method that was used to determine the MIC in P. acnes for selected antimicrobial agents was a non-standard broth microdilution method that used an assay buffer composed of reinforced Clostridial broth. Briefly, a log-phase bacterial culture of P. acnes was used to inoculate wells of a 96-well plate so that the final inoculum for each well contained 5×10^5 to 1×10^6 CFU/milliliter. […] Plates were incubated for 48-72 hours at 37° C. in a GasPak anaerobic chamber. The lowest concentration of peptide that contained no visible growth as evidenced by a lack of turbidity when compared to the control (no peptide) was determined as the MIC. MIC values that utilized this method of MIC determination are indicated in Table 9 with a subscript letter “d.”

[5] = system: Staphylococcus aureus ATCC 29213; conditions: ATCC 29213, pH 7.4
[6] = system: Salmonella dublin (Lane); conditions: pH 7.4
[7] = system: Candida albicans ATCC 18804; assay: MIC in yeasts, NCCLS M27-A2 broth microdilution, RPMI 1640 (Table 9, letter e); type: cell-based; conditions: ATCC 18804
Method in brief: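 Broth microdilution per NCCLS M27-A2 in RPMI 1640 with glutamine and phenol red, final inoculum 0.5×10^3–2.5×10^3 CFU/milliliter. Incubated 24 to 48 hours at 37° C; MIC is the lowest peptide concentration with no visible growth.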

Compound	MIC E. coli [1] [µg/mL]	MIC P. aeruginosa [2] [µg/mL]	MIC S. epidermidis [3] [µg/mL]	MIC P. acnes [4] [µg·days/mL]	MIC S. aureus [5] [b ug/mL]	MIC S. dublin [6] [b ug/mL]	MIC C. albicans [7] [e ug/mL]
CSCC[C@H](NC(=O)[C@H](Cc1ccccc1)NC(=O)[C@H](CC(N)=O)NC(=O)[C@H](CCCNC(=N)N)NC(=O)[C@H](CO)NC(=O)[C@H](Cc1c[nH]c2ccccc12)NC(=O)[C@H](CC(=O)O)NC(=O)[C@H](CCCNC(=N)N)NC(=O)[C@H](Cc1c[nH]c2ccccc12)NC(=O)[C@H](CCCNC(=N)N)NC(=O)[C@H](CO)NC(=O)[C@H](CCCNC(=N)N)NC(=O)CNC(=O)[C@@H](NC(=O)[C@H](CCCNC(=N)N)NC(=O)[C@H](CO)NC(=O)[C@@H](NC(=O)[C@H](CCCNC(=N)N)NC(=O)[C@@H](NC(C)=O)[C@@H](C)O)C(C)C)[C@@H](C)O)C(=O)N[C@@H](CCCNC(=N)N)C(=O)N[C@@H](C)C(=O)N[C@@H](C)C(=O)N[C@@H](CCCN)C(=O)N[C@@H](CCCN)C(=O)N[C@@H](CCCN)C(=O)N[C@@H](CCCN)C(=O)N[C@@H](CCCN)C(=O)N[C@@H](CCCN)C(=O)N[C@@H](CCCN)C(=O)N[C@@H](CCCN)C(N)=O [Peptide 3, Ac-TRVSRTGRSRWRDWSRNFMRAAOOOOOOOO-NH2]	>64	>64	>64	6	6	6	
CSCC[C@H](NC(=O)[C@H](Cc1ccccc1)NC(=O)[C@H](CC(N)=O)NC(=O)[C@H](CCCNC(=N)N)NC(=O)[C@H](CO)NC(=O)[C@H](Cc1c[nH]c2ccccc12)NC(=O)[C@H](CC(=O)O)NC(=O)[C@H](CCCNC(=N)N)NC(=O)[C@H](Cc1c[nH]c2ccccc12)NC(=O)[C@H](CCCNC(=N)N)NC(=O)[C@H](CO)NC(=O)[C@H](CCCNC(=N)N)NC(=O)CNC(=O)[C@@H](NC(=O)[C@H](CCCNC(=N)N)NC(=O)[C@H](CO)NC(=O)[C@@H](NC(=O)[C@H](CCCNC(=N)N)NC(=O)[C@@H](NC(C)=O)[C@@H](C)O)C(C)C)[C@@H](C)O)C(=O)N[C@@H](CCCNC(=N)N)C(=O)N[C@@H](CCCNC(=N)N)C(=O)N[C@@H](CCCNC(=N)N)C(N)=O [Peptide 13] (Ac-TRVSRTGRSRWRDWSRNFMRRR-NH2)				25	25	25	
CSCC[C@@H](NC(=O)[C@@H](Cc1ccccc1)NC(=O)[C@@H](CC(N)=O)NC(=O)[C@@H](CCCNC(=N)N)NC(=O)[C@@H](CO)NC(=O)[C@@H](Cc1c[nH]c2ccccc12)NC(=O)[C@@H](CC(=O)O)NC(=O)[C@@H](CCCNC(=N)N)NC(=O)[C@@H](Cc1c[nH]c2ccccc12)NC(=O)[C@@H](CCCNC(=N)N)NC(=O)[C@@H](CO)NC(=O)[C@@H](CCCNC(=N)N)NC(=O)CNC(=O)[C@H](NC(=O)[C@@H](CCCNC(=N)N)NC(=O)[C@@H](CO)NC(=O)[C@H](NC(=O)[C@@H](CCCNC(=N)N)NC(=O)[C@H](NC(C)=O)[C@H](C)O)C(C)C)[C@H](C)O)C(=O)N[C@H](CCCNC(=N)N)C(=O)N[C@H](C)C(=O)N[C@H](C)C(=O)N[C@H](CCCCN)C(=O)N[C@H](CCCCN)C(=O)N[C@H](CCCCN)C(=O)N[C@H](CCCCN)C(=O)N[C@H](CCCCN)C(=O)N[C@H](CCCCN)C(=O)N[C@H](CCCCN)C(=O)N[C@H](CCCCN)C(N)=O [Peptide 31, Ac-trvsrtgrsrwrdwsrnfmraakkkkkkkk-NH2]	>64	>64	8 (≈ 2.09 µM)	12.5	3	6	
CSCC[C@@H](NC(=O)[C@@H](Cc1ccccc1)NC(=O)[C@@H](CC(N)=O)NC(=O)[C@@H](CCCNC(=N)N)NC(=O)[C@@H](CO)NC(=O)[C@@H](Cc1c[nH]c2ccccc12)NC(=O)[C@@H](CC(=O)O)NC(=O)[C@@H](CCCNC(=N)N)NC(=O)[C@@H](Cc1c[nH]c2ccccc12)NC(=O)[C@@H](CCCNC(=N)N)NC(=O)[C@@H](CO)NC(=O)[C@@H](CCCNC(=N)N)NC(=O)CNC(=O)[C@H](NC(=O)[C@@H](CCCNC(=N)N)NC(=O)[C@@H](CO)NC(=O)[C@H](NC(=O)[C@@H](CCCNC(=N)N)NC(=O)[C@H](NC(=O)[C@@H](C)NC(=O)[C@@H](C)NC(=O)[C@@H](CCCCN)NC(=O)[C@@H](CCCCN)NC(=O)[C@@H](CCCCN)NC(=O)[C@@H](CCCCN)NC(=O)[C@@H](CCCCN)NC(=O)[C@@H](CCCCN)NC(=O)[C@@H](CCCCN)NC(=O)[C@H](N)CCCCN)[C@H](C)O)C(C)C)[C@H](C)O)C(=O)N[C@H](CCCNC(=N)N)C(N)=O [Peptide 36, H2N-kkkkkkkkaatrvsrtgrsrwrdwsrnfmr-NH2] (H-[dK][dK][dK][dK][dK][dK][dK][dK][dA][dA][dT][dR][dV][dS][dR][dT]G[dR][dS][dR][dW][dR][dD][dW][dS][dR][dN][dF][dM][dR]-NH2)				25	6	6	
CSCC[C@H](NC(=O)[C@H](Cc1ccccc1)NC(=O)[C@H](CC(N)=O)NC(=O)[C@H](CCCNC(=N)N)NC(=O)[C@H](C)NC(=O)[C@H](Cc1c[nH]c2ccccc12)NC(=O)[C@H](CC(=O)O)NC(=O)[C@H](CCCNC(=N)N)NC(=O)[C@H](Cc1c[nH]c2ccccc12)NC(=O)[C@H](CCCNC(=N)N)NC(=O)[C@H](CO)NC(=O)[C@H](CCCNC(=N)N)NC(=O)CNC(=O)[C@@H](NC(=O)[C@H](CCCNC(=N)N)NC(=O)[C@H](C)NC(=O)[C@@H](NC(=O)[C@H](CCCNC(=N)N)NC(=O)[C@@H](NC(C)=O)[C@@H](C)O)C(C)C)[C@@H](C)O)C(=O)N[C@@H](CCCNC(=N)N)C(N)=O [Peptide 37] (Ac-TRVARTGRSRWRDWARNFMR-NH2)	>64	>64	>64	100	25	25	64
CCCCCCCCCCCC(=O)NCCCC[C@@H](NC(=O)[C@@H](CCCNC(=N)N)NC(=O)[C@@H](CCSC)NC(=O)[C@@H](Cc1ccccc1)NC(=O)[C@@H](CC(N)=O)NC(=O)[C@@H](CCCNC(=N)N)NC(=O)[C@@H](CO)NC(=O)[C@@H](Cc1c[nH]c2ccccc12)NC(=O)[C@@H](CC(=O)O)NC(=O)[C@@H](CCCNC(=N)N)NC(=O)[C@@H](Cc1c[nH]c2ccccc12)NC(=O)[C@@H](CCCNC(=N)N)NC(=O)[C@@H](CO)NC(=O)[C@@H](CCCNC(=N)N)NC(=O)CNC(=O)[C@H](NC(=O)[C@@H](CCCNC(=N)N)NC(=O)[C@@H](CO)NC(=O)[C@H](NC(=O)[C@@H](CCCNC(=N)N)NC(=O)[C@H](NC(C)=O)[C@H](C)O)C(C)C)[C@H](C)O)C(N)=O [Peptide 65] (Ac-[dT][dR][dV][dS][dR][dT]G[dR][dS][dR][dW][dR][dD][dW][dS][dR][dN][dF][dM][dR][dK](Lauroyl)-NH2)				25	3	6	
CCCCCCCCCCCC(=O)NCCCC[C@H](NC(=O)[C@H](CCCNC(=N)N)NC(=O)[C@H](CCSC)NC(=O)[C@H](Cc1ccccc1)NC(=O)[C@H](CC(N)=O)NC(=O)[C@H](CCCNC(=N)N)NC(=O)[C@H](CO)NC(=O)[C@H](Cc1c[nH]c2ccccc12)NC(=O)[C@H](CC(=O)O)NC(=O)[C@H](CCCNC(=N)N)NC(=O)[C@H](Cc1c[nH]c2ccccc12)NC(=O)[C@H](CCCNC(=N)N)NC(=O)[C@H](CO)NC(=O)[C@H](CCCNC(=N)N)NC(=O)CNC(=O)[C@@H](NC(=O)[C@H](CCCNC(=N)N)NC(=O)[C@H](CO)NC(=O)[C@@H](NC(=O)[C@H](CCCNC(=N)N)NC(=O)[C@@H](NC(=O)CCCCCCCCCCC)[C@@H](C)O)C(C)C)[C@@H](C)O)C(N)=O [Peptide 66] (Lauroyl-TRVSRTGRSRWRDWSRNFMRK(Lauroyl)-NH2)				100	25	25	
CCCCCCCCCCCC(=O)N[C@@H](CCCNC(=N)N)C(=O)N[C@@H](CO)C(=O)N[C@@H](CCCNC(=N)N)C(=O)N[C@@H](Cc1c[nH]c2ccccc12)C(=O)N[C@@H](CCCNC(=N)N)C(=O)N[C@@H](CC(=O)O)C(=O)N[C@H](C(=O)N[C@@H](C)C(=O)N[C@@H](CCCNC(=N)N)C(=O)N[C@@H](CC(N)=O)C(=O)N[C@@H](Cc1ccccc1)C(=O)N[C@@H](CCSC)C(=O)N[C@@H](CCCNC(=N)N)C(N)=O)C(C)C [Peptide 88, Lauryl-RSRWRDVARNFMR-NH2] (Lauroyl-RSRWRDVARNFMR-NH2)				25	3	3	32
CSCC[C@@H](NC(=O)[C@@H](Cc1ccccc1)NC(=O)[C@@H](CC(N)=O)NC(=O)[C@@H](CCCNC(=N)N)NC(=O)[C@@H](CO)NC(=O)[C@@H](Cc1c[nH]c2ccccc12)NC(=O)[C@@H](CC(=O)O)NC(=O)[C@@H](CCCNC(=N)N)NC(=O)[C@@H](Cc1c[nH]c2ccccc12)NC(=O)[C@@H](CCCNC(=N)N)NC(=O)[C@@H](CO)NC(=O)[C@@H](CCCNC(=N)N)NC(C)=O)C(=O)N[C@H](CCCNC(=N)N)C(N)=O [Peptide 95, Ac-rsrwrdwsrnfmr-NH2] (Ac-[dR][dS][dR][dW][dR][dD][dW][dS][dR][dN][dF][dM][dR]-NH2)				12.5	12.5	6	16
